Experimental findings from patent publication US11241475B2, “Preventive and/or therapeutic agent for osteogenesis imperfecta and other diseases” (Pharma Foods International Co., Ltd., priority 2016, dated 2022) are described below.

The subject of assay [1] is mouse osteoblast-like cell line MC3T3-E1 Subclone-4. Nature of the assay: Proliferation-promoting activity on osteoblastic precursor cells (BrdU uptake). It is filed as cell-based. As for the experimental part:
The mouse osteoblast-like cell line MC3T3-E1 Subclone-4 (ATCC No. CRL-2593) was cultured in α-MEM medium supplemented with 10% FBS at 37° C. in 5% CO2-95% air to subconfluence. The cells were collected by trypsinization. The collected cells were suspended at 5×10^4 cells/mL in fresh α-MEM medium with the same supplement. One hundred microliters of the cell suspension was seeded in each well of a 96-well plate, and precultured at 37° C. in 5% CO2-95% air. On the next day, the medium was replaced with α-MEM medium containing the sample dissolved therein with a supplement of 0.1% FBS. The cells were further cultured for 24 hours. The proliferative activity of the osteoblastic precursor cells was assessed by measuring the amount of BrdU uptake. The proliferation-promoting activity of the sample on the osteoblastic precursor cells was expressed as a value relative to the proliferation level of the cells in the absence of the sample, which was taken as 100.

The subject of assay [2] is insulin-like growth factor (IGF-1). Nature of the assay: Promoting effect on IGF-1 production after single oral dose (Example 8). Conditions: rats. It is filed as in vivo. As for the experimental part:
The synthetic peptide No. 1 or No. 2 or water for injection (control) was orally administered as a single dose to male Wistar rats at the age of four weeks by using a gastric tube (n=6 in each group). The dosage of the synthetic peptide No. 1 or No. 2 was 10 mg/kg. The blood was collected from the tail before administration and 30, 45, 60 and 90 minutes after administration, and the serum was separated. At 120 minutes after administration, the whole blood was collected from the abdominal vena cava under anesthesia and the rats were euthanized (see FIG. 25). The concentration of IGF-1 in the serum was measured by ELISA (Mouse/Rat IGF-I Quantikine ELISA Kit (MG100), R&D Systems, Inc.).
The concentration dependence of the synthetic peptides was examined. The synthetic peptide No. 1 was orally administered as a single dose of 1, 5 or 10 mg/kg (n=6 in each group). At 60 minutes after administration, the rats were euthanized under anesthesia, and the liver was harvested. The concentration of IGF-1 in the serum and liver was measured. For the serum IGF-1 concentration, the difference (Δ value) before and after administration was also determined.
The synthetic peptide No. 2 was orally administered to the rats as a single dose of 0.1, 1 or 10 mg/kg (n=6 in each group). At 45 minutes after administration, the rats were euthanized under anesthesia, and the liver was harvested. The concentration of IGF-1 in the serum and liver was measured. For the serum IGF-1 concentration, the difference (Δ value) before and after administration was also determined.

Assay [3] concerns mouse chondrogenic cell line ATDC5. Nature of the assay: Proliferation-promoting activity on chondrogenic cells (BrdU uptake). It is filed as cell-based. Conditions: ATDC5, 24 hours, relative to absence of sample = 100, FIGS. 5 and 6. Here is the method: The mouse chondrogenic cell line ATDC5 (RCB0565) was cultured in DMEM/F-12 medium supplemented with 5% FBS, 3×10-8 M sodium selenite and 5 μg/mL human transferrin at 37° C. in 5% CO2-95% air to subconfluence. The cells were collected by trypsinization. The collected cells were suspended at 5×10^4 cells/mL in fresh DMEM/F-12 medium with the same supplements. One hundred microliters of the cell suspension was seeded in each well of a 96-well plate, and precultured at 37° C. in 5% CO2-95% air. On the next day, the medium was replaced with DMEM/F-12 medium containing the sample dissolved therein with a supplement of 3×10^−8 M sodium selenite and 5 μg/mL human transferrin. The cells were further cultured for 24 hours. The proliferative activity of the chondrogenic cells was assessed by measuring the amount of BrdU uptake. The proliferation-promoting activity of the sample on the chondrogenic cells was expressed as a value relative to the proliferation level of the cells in the absence of the sample, which was taken as 100.

Assay [4] deals with insulin-like growth factor (IGF-1). Nature of the assay: IGF-1 production: peptide No. 2 versus reverse sequence and constituent amino acids (Example 9). Conditions: rats, single oral dose 10 mg/kg, 45 minutes, groups No. 2, R-No. 2, AA, control. It is filed as in vivo. As for the experimental part: The synthetic peptide No. 2, a peptide consisting of a reverse sequence of the peptide No. 2 (SEQ ID NO: 3; herein also called R-No. 2), constituent amino acids of the synthetic peptide No. 2 (herein also called AA), or water for injection (control) was orally administered as a single dose to male Wistar rats at the age of four weeks by using a gastric tube (n=6 in each group). The dosage of the synthetic peptide, the reverse sequence peptide and the constituent amino acids was 10 mg/kg. At 45 minutes after administration, the rats were euthanized under anesthesia, and the liver was harvested. The concentration of IGF-1 in the serum and liver was measured by ELISA (Mouse/Rat IGF-I Quantikine ELISA Kit (MG100), R&D Systems, Inc.). For the serum IGF-1 concentration, the difference (Δ value) before and after administration was also determined.

With “Val-Asn-Pro-Glu (VNPE) [synthetic peptide No. 2]”, the “proliferation-promoting activity on osteoblastic precursor cells” value in assay [1] (MC3T3-E1, 24 hours, BrdU uptake, relative to absence of sample = 100, FIGS. 3 and 4) is listed as “promoted the proliferation”. Further, in assay [1] (MC3T3-E1, BrdU uptake), the “concentration at which the proliferation-promoting effect is exhibited” value was “sufficiently exhibited its effect at a low concentration”. The “proliferation-promoting activity on osteoblastic precursor cells, comparison between the peptides” value in assay [1] (MC3T3-E1, BrdU uptake, No. 2 versus No. 1) is recorded as “higher activity than the synthetic peptide No. 1”. In assay [2] (single oral dose 10 mg/kg, at 45 and 60 minutes after administration, versus control, FIG. 27), the “concentration of IGF-1 in the serum (time course)” value is recorded as “significantly higher”. In addition, the “dose dependence of IGF-1 concentration in the serum and liver” value in assay [2] (single oral dose 0.1, 1 or 10 mg/kg, 45 minutes) was “increased in a dose-dependent manner”. The “concentration of IGF-1 in the serum” value in assay [2] (single oral dose 0.1, 1 or 10 mg/kg, 45 minutes after administration, versus control group, FIG. 30) is listed as “significantly higher”; in assay [4] (FIG. 32), “significantly higher”. In addition, the “concentration of IGF-1 in the liver” value in assay [2] (single oral dose 0.1, 1 or 10 mg/kg, 45 minutes after administration, versus control group, FIG. 31) was “significantly higher”; in assay [4] (FIG. 33), “significantly higher”. In addition, the “proliferation-promoting activity on chondrogenic cells” value in assay [3] is reported as “promoted the proliferation”.
